The values that follow come from US8492342B2, “Preprocalcitonin antigen T epitopes” (Institut Gustave Roussy, priority 2007, dated 2013).

Holding throughout (format): cell-based, human
For one assay, the system named is IGR-Heu tumor cells. As to the kind of experiment: Proteasome inhibition: CTL recognition (TNFβ release) of inhibitor-treated IGR-Heu tumor cells. Conditions: 10 μM, FIG. 4A. The method, then: FIG. 4: Processing of the preprocalcitonin16-25 peptide is proteasome- and TAP-independent. A. IGR-Heu target cells were incubated for 2 h at 37° C. in the presence or absence of the proteasome-specific inhibitor epoxomicin, and then Heu161 cells were added. The autologous Heu127 clone, recognizing on IGR-Heu a proteasome-dependent mutated α-actinin-4 peptide, was included as a positive control. TNFβ released in medium after 24 h of culture was measured as above. B. 293-EBNA cells were cotransfected with pCEP4 containing either cDNA 150 (upper panel) or the mutated α-actinin-4 cDNA (lower panel), with pcDNA3.1 containing an HLA-A*0201 construct, and with various amounts of vector pBJi-neo containing IPC47 cDNA. CTL clones Heu161 (upper panel) or Heu127 (lower panel) were then added. Controls included 293-EBNA cells transfected with HLA-A2 or pBJi-neo-IPC47 alone, and incubation of transfectants with either preprocalcitonin or α-actinin-4 peptides. Data shown are representative of four independent experiments.
(§1) TNFβ was detected by measuring the cytotoxicity of the culture medium on TNF-sensitive WEHI-164c13 cells with a MTT colorimetric assay (ESPEVIK & NISSEN-MEYER, J Immunol Methods, 95, 99-105, 1986).
For proteasomes and SP inhibition, 10^6 tumor cells were resuspended in 300 μl of media in the presence or absence of specific inhibitors. […]

Assay [1] concerns CTL clone Heu161. Briefly: CTL stimulation (TNF release) by synthetic peptides loaded on HLA-A2+ MZ2-MEL.3.1 melanoma cells. The method, then: (§2) FIG. 3: Identification of the antigenic peptide recognized by CTL clone Heu161. A. CTL stimulation with purified synthetic peptides. Peptides were loaded on allogeneic HLA-A2^+ MZ2-MEL.3.1 melanoma cells for 60 min at room temperature before addition of CTL clone Heu161. TNF release was measured 16 h later. Empty circles represent the results obtained with peptide SEQ ID NO: 1, full circles represent the results obtained with peptide SEQ ID NO: 2, empty squares represent the results obtained with peptide SEQ ID NO: 24, full squares represent the results obtained with peptide SEQ ID NO: 25 and empty diamonds represent the results obtained with peptide SEQ ID NO: 26. B. Lytic activity of CTL clone on peptide-pulsed cells. ^51Cr-labeled Heu-EBV-B cells were incubated over 60 min with the indicated concentrations of peptides before addition of CTL clone Heu161 at an E/T cell ratio of 10:1. Chromium release was measured after 4 h. Empty circles represent the results obtained with peptide SEQ ID NO: 1, full circles represent the results obtained with peptide SEQ ID NO: 2
as §1
We then prepared a series of calcitonin cDNA fragments truncated at their 5′ end and engineered to contain an initiation codon and a Kozak consensus sequence. […] Further trimming narrowed down the peptide-encoding region to residues 9-38 (FIG. 2B). Among a set of overlapping peptides covering this region, only two were recognized by CTL clone Heu161: VLLQAGSLHA (SEQ ID NO: 1) and LVLLQAGSLHA (SEQ ID NO: 2), which are identical, but with an additional leucine in the latter peptide. […] In a lysis assay, the decamer was slightly more efficient than the 11-mer peptide by a factor of about three (FIG. 3B). We concluded that the optimal antigenic peptide recognized by CTL clone Heu161 was VLLQAGSLHA (SEQ ID NO: 1) or preprocalcitonin16-25. This peptide corresponds exactly to the C-terminal part of the preprocalcitonin signal peptide (LE MOULLEC et al., FEBS Lett, 167, 93-7, 1984).

Assay [2] has as its system CTL clone Heu161. Briefly: Lytic activity of CTL clone on peptide-pulsed 51Cr-labeled Heu-EBV-B cells. To be noted: E/T 10:1, 4 h chromium release, FIG. 3B. The method, then:
as §2
Cytotoxic activity was measured by a conventional 4-h ^51Cr-release assay using triplicate cultures in round-bottomed 96-well plates. Percent specific cytotoxicity was calculated conventionally; SD were <5%. […]

As for `CC[C@H](C)[C@H](NC(=O)[C@H]([C@@H](C)CC)N(C)C(C)=O)C(=O)N[C@H](C(=O)N[C@@H](CC(C)C)C(=O)[C@@]1(C)CO1)[C@@H](C)O` [epoxomicin], in the assay on IGR-Heu tumor cells, the “effect on recognition by anti-preprocalcitonin CTL clone Heu161” value is reported as “no effect”.

With “VLLQAGSLHA [SEQ ID NO: 1, optimal antigenic peptide recognized by CTL clone Heu161, C-terminal part of the preprocalcitonin signal peptide]”, the EC50 with CTL clone Heu161 [1] (HLA-A2+ melanoma cells loaded 60 min, TNF release after 16 h, FIG. 3A, read-out: peptide concentration giving half-maximal effect (sensitization to recognition by CTL Heu161)) is around 0.01 µM. Further, in the assay with CTL clone Heu161 [1] (overlapping synthetic peptides of preprocalcitonin), the “recognition of peptide by CTL clone Heu161” value is “recognized”. Besides, the “efficiency in lysis assay, decamer relative to 11-mer (factor)” value in the assay on CTL clone Heu161 [2] was “about three”.
